Target: MetAP-2 (Homo sapiens, UniProt P50579)
Experiment: MetAP-2 activity measurement (coupled enzymatic reactions, Met-Arg-Ser substrate, dianisidine detection at 450 nm)
Assay type: biochemical
Details: Inhibition of MetAP-2; read-out: IC50 enzyme
In short: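 Coupled continuous assay with Met-Arg-Ser tripeptide substrate: released methionine oxidised by L-amino acid oxidase to give H2O2, which peroxidase uses to oxidise dianisidine, followed at 450 nm. Activity taken as slope of absorbance versus time over the visually linear region; dianisidine extinction coefficient converts to mol Met per time.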

Chain of MetAP-2 (P50579 whole entry, species assumed): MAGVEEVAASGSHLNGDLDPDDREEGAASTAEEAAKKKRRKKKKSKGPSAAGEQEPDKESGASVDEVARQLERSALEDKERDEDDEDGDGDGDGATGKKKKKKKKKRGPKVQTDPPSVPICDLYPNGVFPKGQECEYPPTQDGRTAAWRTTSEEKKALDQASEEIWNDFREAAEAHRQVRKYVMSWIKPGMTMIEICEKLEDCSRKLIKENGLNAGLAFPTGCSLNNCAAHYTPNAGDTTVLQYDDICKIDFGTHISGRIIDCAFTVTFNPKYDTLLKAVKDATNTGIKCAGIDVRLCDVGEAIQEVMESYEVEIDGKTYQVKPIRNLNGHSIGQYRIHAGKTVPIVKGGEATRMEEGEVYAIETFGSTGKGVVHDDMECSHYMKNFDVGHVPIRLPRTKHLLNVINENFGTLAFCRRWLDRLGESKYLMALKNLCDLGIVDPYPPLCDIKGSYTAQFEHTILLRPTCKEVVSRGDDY

IC50 [nM]	Structure (SMILES)
10 to 1000	CC(=O)Nc1ccc(N2CCC(O)(C(=O)NCCc3cc(F)cc(Cl)c3)C2=O)cn1 (centres unmarked) [A139, N-[2-(3-Chloro-5-fluorophenyl)-ethyl]-1-(6-acetylaminopyridin-3-yl)-3-hydroxy-2-oxopyrrolidine-3-carboxamide]
10 to 1000	O=C(NCc1cc(F)cc(Cl)c1)[C@@]1(O)CCN(Cc2ccccc2)C1=O [A140, N-(3-Chloro-5-fluorobenzyl)-(S)-1-benzyl-3-hydroxy-2-oxo-pyrrolidine-3-carboxamide]
> 10000	O=C(NCc1cc(F)cc(Cl)c1)[C@]1(O)CCN(Cc2ccccc2)C1=O [A141, N-(3-Chloro-5-fluorobenzyl)-(R)-1-benzyl-3-hydroxy-2-oxo-pyrrolidine-3-carboxamide]
10 to 1000	Cc1cc(N2CCC(O)(C(=O)NCc3cc(F)cc(Cl)c3)C2=O)cnc1N1CCOCC1=O (centres unmarked) [A142, N-(3-Chloro-5-fluorobenzyl)-3-hydroxy-1-[5-methyl-6-(3-oxo-morpholin-4-yl)-pyridin-3-yl]-2-oxopyrrolidine-3-carboxamide]
10 to 1000	CC(=O)Nc1ccc(N2CCC(O)(C(=O)NCCc3ccccc3C(F)(F)F)C2=O)cn1 (centres unmarked) [A143, N-[2-(2-Trifluoromethylphenyl)-ethyl]-1-(6-acetylaminopyridin-3-yl)-3-hydroxy-2-oxopyrrolidine-3-carboxamide]
1000 to 10000	CC(NC(=O)C1(O)CCN(c2ccccc2)C1=O)c1cccc(F)c1 (centres unmarked) [A145, N-[1-(3-Fluorophenyl)ethyl]-3-hydroxy-2-oxo-1-phenyl-pyrrolidine-3-carboxamide]
10 to 1000	O=C(NCc1cc(F)cc(Cl)c1)C1(O)CCN(c2ccc3[nH]c(=O)ccc3c2)C1=O (centres unmarked) [A147, N-(3-Chloro-5-fluorobenzyl)-3-hydroxy-2-oxo-1-(2-oxo-1,2-dihydroquinolin-6-yl)pyrrolidine-3-carboxamide]
10 to 1000	O=C1CCc2cc(N3CC[C@](O)(C(=O)NCCc4cc(F)cc(Cl)c4)C3=O)ccc2N1 [A149, N-[2-(3-Chloro-5-fluorophenyl)-ethyl]-(S)-3-hydroxy-2-oxo-1-(2-oxo-1,2,3,4-tetrahydroquinolin-6-yl)pyrrolidine-3-carboxamide]
1000 to 10000	O=C(NCc1cc(F)cc(Cl)c1)C1(O)CCN([C@H]2CC[C@H](C(=O)O)CC2)C1=O (some centres unmarked) [A152, 4-[3-(3-Chloro-5-fluorobenzyl-carbamoyl)-3-hydroxy-2-oxo-pyrrolidin-1-yl]-cyclohexanecarboxylic acid]
10 to 1000	CC(=O)Nc1ccc(N2CC[C@](O)(C(=O)NCCc3cc(F)cc(Cl)c3)C2=O)cn1 [A155, N-[2-(3-Chloro-5-fluorophenyl)-ethyl]-(S)-1-(6-acetylamino-pyridin-3-yl)-3-hydroxy-2-oxo-pyrrolidine-3-carboxamide]
1000 to 10000	CNC(=O)[C@H]1CC[C@H](N2CCC(O)(C(=O)NCc3cc(F)cc(Cl)c3)C2=O)CC1 (some centres unmarked) [A157, N-(3-Chloro-5-fluorobenzyl)-3-hydroxy-1-(4-methylcarbamoyl-cyclohexyl)-2-oxopyrrolidine-3-carboxamide]
> 10000	O=C1CCc2cc(NC(=O)C3CCN(c4ccc5c(c4)CCC(=O)N5)C3=O)ccc2N1 (centres unmarked) [A158, N-(2-Oxo-1,2,3,4-tetrahydro-quinolin-6-yl)-2-oxo-1-(2-oxo-1,2,3,4-tetrahydroquinolin-6-yl)-pyrrolidine-3-carboxamide]
1000 to 10000	NC(=O)c1cccc(N2CC[C@@](O)(C(=O)NCCc3cc(F)cc(Cl)c3)C2=O)c1 [A159, N-[2-(3-Chloro-5-fluorophenyl)-ethyl]-(R)-1-(3-carbamoyl-phenyl)-3-hydroxy-2-oxo-pyrrolidine-3-carboxamide]
10 to 1000	CNC(=O)c1cccc(N2CC[C@](O)(C(=O)NCc3cc(F)cc(Cl)c3)C2=O)c1 [A161, N-(3-Chloro-5-fluorobenzyl)-(S)-3-hydroxy-1-(3-methyl-carbamoylphenyl)-2-oxo-pyrrolidine-3-carboxamide]

Second part, the molecule before the results:

Structure (SMILES)	IC50 [nM]
COc1ccc(N2CCC(O)(C(=O)NCc3cc(F)cc(Cl)c3)C2=O)cn1 (centres unmarked) [A138, N-(3-Chloro-5-fluorobenzyl)-3-hydroxy-1-(6-methoxypyridin-3-yl)-2-oxopyrrolidine-3-carboxamide]	10 to 1000
NC(=O)c1cccc(N2CCC(O)(C(=O)NCCc3ccccc3C(F)(F)F)C2=O)c1 (centres unmarked) [A144, N-[2-(2-Trifluoromethylphenyl)-ethyl]-1-(3-carbamoylphenyl)-3-hydroxy-2-oxopyrrolidine-3-carboxamide]	10 to 1000
CNC(=O)c1cc2cc(N3CCC(O)(C(=O)NCc4cc(F)cc(Cl)c4)C3=O)ccc2o1 (centres unmarked) [A146, N-(3-Chloro-5-fluorobenzyl)-3-hydroxy-1-(2-methylcarbamoyl-benzofuran-5-yl)-2-oxo-pyrrolidine-3-carboxamide]	10 to 1000
CCOC(=O)[C@H]1CC[C@H](N2CCC(O)(C(=O)NCc3cc(F)cc(Cl)c3)C2=O)CC1 (some centres unmarked) [A148, Ethyl 4-[3-(3-chloro-5-fluorobenzylcarbamoyl)-3-hydroxy-2-oxopyrrolidin-1-yl]-cyclohexanecarboxylate]	1000 to 10000
O=C1CCc2cc(N3CC[C@@](O)(C(=O)NCCc4cc(F)cc(Cl)c4)C3=O)ccc2N1 [A150, N-[2-(3-Chloro-5-fluorophenyl)-ethyl]-(R)-3-hydroxy-2-oxo-1-(2-oxo-1,2,3,4-tetrahydroquinolin-6-yl)pyrrolidine-3-carboxamide]	> 10000
O=C1COc2cc(N3CCC(O)(C(=O)NCc4cc(F)cc(Cl)c4)C3=O)ccc2N1 (centres unmarked) [A151, N-(3-Chloro-5-fluorobenzyl)-3-hydroxy-2-oxo-1-(3-oxo-3,4-dihydro-2H-benzo-1,4-oxazin-7-yl)pyrrolidine-3-carboxamide]	10 to 1000
O=C(NCc1cc(F)cc(Cl)c1)[C@@]1(O)CCN(c2ccc3cc[nH]c3c2)C1=O [A153, N-(3-Chloro-5-fluorobenzyl)-(S)-3-hydroxy-1-(1H-indol-6-yl)-2-oxopyrrolidine-3-carboxamide]	10 to 1000
O=C(NCc1cc(F)cc(Cl)c1)[C@]1(O)CCN(c2ccc3cc[nH]c3c2)C1=O [A154, N-(3-Chloro-5-fluorobenzyl)-(R)-3-hydroxy-1-(1H-indol-6-yl)-2-oxopyrrolidine-3-carboxamide]	> 10000
CC(=O)Nc1ccc(N2CC[C@@](O)(C(=O)NCCc3cc(F)cc(Cl)c3)C2=O)cn1 [A156, N-[2-(3-Chloro-5-fluorophenyl)-ethyl]-(R)-1-(6-acetylamino-pyridin-3-yl)-3-hydroxy-2-oxo-pyrrolidine-3-carboxamide]	> 10000
CNC(=O)c1cccc(N2CC[C@@](O)(C(=O)NCc3cc(F)cc(Cl)c3)C2=O)c1 [A162, N-(3-Chloro-5-fluorobenzyl)-(R)-3-hydroxy-1-(3-methyl-carbamoylphenyl)-2-oxo-pyrrolidine-3-carboxamide]	> 10000
O=C(NC1CCC1)c1cccc(N2CC[C@](O)(C(=O)NCc3cc(F)cc(Cl)c3)C2=O)c1 [A163, N-(3-Chloro-5-fluorobenzyl)-(S)-1-(3-cyclobutylcarbamoyl-phenyl)-3-hydroxy-2-oxo-pyrrolidine-3-carboxamide]	10 to 1000
O=C(NC1CCC1)c1cccc(N2CC[C@@](O)(C(=O)NCc3cc(F)cc(Cl)c3)C2=O)c1 [A164, N-(3-Chloro-5-fluorobenzyl)-(R)-1-(3-cyclobutylcarbamoyl-phenyl)-3-hydroxy-2-oxo-pyrrolidine-3-carboxamide]	> 10000

Reference: patent US10093623B2, “Cyclic amides as MetAP-2 inhibitors” (MERCK PATENT GmbH, priority 2012, dated 2018)
